From patent publication US9587001B2, “Conjugated knottin mini-proteins containing non-natural amino acids” (priority 2012, dated 2017)
Starred links: 1 amine or outer side, 2 acyl side, 3 side chain; linkers in the order of their positions; H or OH if unused. Positions of bridges follow the written chain, without caps; N, C: chain ends. Non-standard residues stand in square brackets, D forms with d. Residues, ends and D or L forms follow the SMILES beside them. Primed or numbered codes have the meaning given here. Chains are numbered I, II in the order given. No end group written: not given here. AO″ = AO: aminooxy residue, 2-amino-3-(2-(aminooxy)acetamido)propanoic acid (side chain carries R'-O-NH2), O=C(CON[*:3])NC[C@H](N[*:1])C(=O)[*:2]; X1 = O=C(NCCCOCCCCOCCCNC(=O)c1ccc(C=NOCC(=O)[*:2])cc1)c1ccc(C=NOCC(=O)[*:1])cc1; Dap = NC[C@H](N)C(=O)O

Tests used:
[1] = tested on: U87MG cells expressing αvβ3, αvβ5, and α5β1 integrins; test: Competition binding assay to U87MG cells (flow cytometry); design: species or system human; settings: for IC50: 4° C. for 10 h, average of three experiments; for increase of apparent binding affinity of dimer compared to the monomer: from IC50 values
Experimental: FIG. 2B is a graph showing a competition assay of EETI-based integrin binding proteins 2.5F dimer and 2.5F monomer to U87MG cells, as measured by flow cytometry. Alexa488-labeled EETI 2.5F was used as a competitor. Monomeric EETI 2.5F with an introduced aminooxy residue is designated as 2.5F_AO.
FIG. 2C is a graph showing a competition assay of AgRP-based integrin binding proteins: dimeric 7C and monomeric 7C to U87MG cells, as measured by flow cytometry. Alexa488-labeled AgRP 7C was used as a competitor. Monomeric AgRP 7C with aminooxy residue is designated as Monomeric 7C_AO.
Alexa488-labeled EETI 2.5F was used as a competitor.
Competition binding assays were performed to measure the relative binding affinities of engineered knottins to U87MG cells expressing αvβ3, αvβ5, and α5β1 integrins (FIG. 2A, 2B, 2C). 2×10^5 U87MG cells were incubated at 4° C. for 10 h in integrin binding buffer (20 mM Tris pH 7.5, 1 mM MgCl2, 1 mM MnCl2, 2 mM CaCl2, 100 mM NaCl, and 0.1% BSA) and varying concentrations of the peptides with 0.25 nM of Alexa488-labeled EETI 2.5F as a competitor for dimeric and monomeric EETI 2.5F, and 5 nM of Alexa488-labeled AgRP 7C as a competitor for dimeric and monomeric AgRP 7C. Half-maximal inhibitory concentration (IC50) values were determined by nonlinear regression analysis using KaleidaGraph (Synergy Software), and are presented as the average of three separate experiments.

[2] = tested on: MDA231 (Human breast adenocarcinoma); test: Inhibition of proliferation, MDA231 carcinoma line; format: cell-based; settings: for Proliferation: Cell line: MDA231; for inhibition of tumor cell proliferation, comparison between dimers, monomer and Cilengitide: Table 3 results
Experimental: (§1) Dimers of the present knottins with AO groups incorporated at different positions were prepared and conjugated with different linkages. There were tested for activity against carcinoma lines. As identified there, Dimer 1 is EETI 2.5F where the AO group was incorporated in place of Lys15, conjugated through the 17.3 Angstrom linker shown in FIG. 1B; Dimer 2 is EETI 2.5F, where the AO group was incorporated in place of Lys15, conjugated though the 68.5 Angstrom linker shown in FIG. 9. Dimer 3 is EETI 2.5F, where the AO group was incorporated at the C-terminus following residue 33, conjugated through a 17.3 Angstrom linker shown in FIG. 1B; Dimer 4 is EETI 2.5F, where the AO group was incorporated at the C-terminus following residue 33, conjugated through the 68.5 Angstrom linker shown in FIG. 9. […] Also, it was observed that the length of the linkage had only a minor effect on binding. Binding, of course, it correlated with the activity in proliferation and apoptosis.

[3] = tested on: MDA231 (Human breast adenocarcinoma); test: Apoptosis (Caspase-3), MDA231 carcinoma line; format: cell-based; settings: Cell line: MDA231
Experimental: as §1

U87MG cells [4] = format: cell-based, human; settings: for EC50: U87MG cells on fibronectin coated plates, 1 h at 37° C., read-out: Adhesion EC50
Experimental: FIG. 3A is a graph measuring comparative inhibition of adhesion of U87MG cells treated with dimeric and monomeric 2.5F to fibronectin, a component of ECM. Fibronectin coated plates were incubated with U87MG cells with the indicated concentrations of peptides. Adherent cells remaining after several wash steps were quantified with crystal violet staining by absorbance at 600 nm. […] Values were normalized to negative control containing no competing peptides.
FIG. 7 is a graph measuring comparative inhibition of adhesion of U87MG cells treated with dimeric and monomeric 2.5F or Cilgenitide to fibronectin, a component of ECM. Fibronectin coated plates were incubated with U87MG cells with the indicated concentrations of peptides. Adherent cells remaining after several wash steps were quantified with crystal violet staining by absorbance at 600 nm. Values were normalized to negative control containing no competing peptides.
Varying concentrations of peptides were added to 4×10^4 cells in 100 μl of IBB, incubated for 1 h at 37° C., 5% CO2, and gently washed with Dulbecco's PBS (DPBS, Invitrogen). Remaining adherent cells were incubated with 100 μl of 0.2% crystal violet and 10% ethanol for 10 min at room temperature, washed in DPBS and solubilized with 100 μl/well of a 50:50 mixture of 100 mM sodium phosphate, pH 4.5 and ethanol for 10 min. The absorbance at 600 nm was measured using Synergy HT microplate reader (BioTek).

U87MG cells [5] = test: U87MG cell morphology after knottin treatment (microscope images); format: cell-based, human; settings: 500 nM, 24 h, DMEM media with 4% FBS
Experimental: FIG. 3B is a panel of microscope images of the U87MG cells on culture plates after 24 h treatment with 500 nM of the indicated knottins.

U87MG cells [6] = test: Cytotoxicity / inhibition of proliferation of U87MG cells (AlamarBlue); format: cell-based, human
Experimental: FIG. 4A is a bar graph showing time dependent cytotoxicity of U87MG cells after treatment with the indicated knottin mini-proteins. Cytotoxicity was monitored by incubating U87MG cells on culture plates with 500 nM of each knottin in 4% FBS media at 37° C. and 5% CO2 and measuring cell viability at 24, 48, and 72 h after the treatment using the AlamarBlue indicator dye.
FIG. 4B is a bar graph showing dose dependent cytotoxicity of U87MG cells assessed by treating with different concentrations of knottins for 72 h and measuring cell viability using the AlamarBlue indicator dye.
FIG. 8 is a bar graph showing dose dependent cytotoxicity of U87MG cells assessed by treating with different concentrations of dimeric or monomeric 2.5F or Cilgenitide for 72 h and measuring cell viability using the AlamarBlue indicator dye.

[7] = tested on: SKOV 3 (Ovarian adenocarcinoma); test: Inhibition of proliferation, SKOV 3 carcinoma line; format: cell-based; settings: Cell line: SKOV 3
Experimental: as §1

[8] = 0.25 nM Alexa488-labeled EETI 2.5F as competitor

Compound	IC50 [1, 8]	Proliferation [2]	Apoptosis (Caspase-3) [3]	EC50 (U87MG cells [4])	inhibition of U87MG cell adhesion to fibronectin (in words) (U87MG cells [4]; fibronectin-coated plates)	U87MG cell morphology (U87MG cells [5])	inhibition of U87MG cell proliferation (U87MG cells [6]; 10 nM, 72 hours)	inhibition of U87MG cell proliferation (U87MG cells [6]; 100 nM, 72 hours)	inhibition of U87MG cell proliferation (U87MG cells [6]; 500 nM, 24 h)	inhibition of U87MG cell proliferation (U87MG cells [6]; 500 nM, 48 h)	inhibition of U87MG cell proliferation (U87MG cells [6]; 500 nM, 72 h)	inhibition of U87MG cell proliferation (U87MG cells [6]; 1000 nM, 72 hours)	increase of apparent binding affinity of dimer compared to the monomer [1]	Proliferation [7]	inhibition of tumor cell proliferation, comparison between dimers, monomer and Cilengitide [2]	also measured
CC(C)C[C@@H]1NC(=O)[C@@H]2CSSC[C@@H](C(=O)NCC(=O)O)NC(=O)[C@H](Cc3ccccc3)NC(=O)CNC(=O)[C@H](CC(N)=O)NC(=O)[C@@H]3CCCN3C(=O)CNC(=O)[C@@H]3CSSC[C@H](NC(=O)[C@H]([C@@H](C)O)NC(=O)[C@H](CC(C)C)NC(=O)[C@@H]4CCCN4C(=O)[C@@H]4CCCN4C(=O)[C@H](CC(N)=O)NC(=O)[C@H](CC(=O)O)NC(=O)CNC(=O)[C@H](CCCNC(=N)N)NC(=O)[C@@H]4CCCN4C(=O)[C@H](CCCNC(=N)N)NC(=O)[C@@H]4CCCN4C(=O)[C@@H](NC(=O)CN)CSSC[C@H](NC(=O)CNC(=O)[C@H](C)NC1=O)C(=O)N[C@@H](C(C)C)C(=O)N3)C(=O)N[C@@H](CCCCN)C(=O)N[C@@H](CCC(N)=O)C(=O)N[C@@H](CC(=O)O)C(=O)N[C@@H](CO)C(=O)N[C@@H](CC(=O)O)C(=O)N2 [EETI 2.5F] (H-GCPRPRGDNPPLTCKQDSDCLAGCVCGPNGFCG-OH; disulfide 2-24, 14-26, 20-32)	1.64 ± 0.03 nM	Weak inhibition	Moderate induction	180 ± 14 nM	able to inhibit	rounded morphology	15%	30%	37%	44%	50%	60%	–	–	–	–
I: GCPRPRGDNPPLTC[Dap]QDSDCLAGCVCGPNGFCG / II: GCPRPRGDNPPLTC[Dap]QDSDCLAGCVCGPNGFCG (disulfide I:2-I:24, I:14-I:26, I:20-I:32, II:2-II:24, II:14-II:26, II:20-II:32; linker I:15-II:15 via X1) [EETI 2.5F Dimer]	0.036 ± 0.002 nM	Strong inhibition	Strong induction	8 ± 2 nM	able to inhibit	rounded morphology	28%	52%	53%	68%	69%	70%	approximately 46 fold	Strong inhibition	more strongly inhibited tumor cell proliferation compared to Dimers 3 and 4	more effective in preventing U87MG cell adhesion compared to the monomer (U87MG cells [4]; fibronectin-coated plates): 100 fold; more potent at inhibiting cell proliferation compared to Cilengitide (U87MG cells [6]; U87MG cells, 72 h): 100 fold
CC(C)[C@H]1C(=O)N[C@@H](CCCN=C(N)N)C(=O)NCC(=O)N[C@@H](CC(=O)O)C(=O)N[C@H](Cc2ccccc2)C(=O)N1C [Cilengitide, reference compound]	–	Weak inhibition	Moderate induction	–	does not inhibit	–	–	–	–	–	–	–	–	–	–	–
scrambled EETI FNRDG monomer [FNRDG_AO, reference compound]	–	–	–	–	not able to inhibit cell adhesion	–	–	–	–	–	–	–	–	–	–	binding (in words) ([1]; scrambled controls): negligible binding; inhibition of U87MG cell proliferation (in words) (U87MG cells [6]; scrambled controls): did not induce significant inhibition
I: GCVRLHESCLGQQVPCCDPAATCYCYGRGDNDLRCYC[Dap] / II: GCVRLHESCLGQQVPCCDPAATCYCYGRGDNDLRCYC[Dap] (disulfide I:2-I:17, I:9-I:23, I:16-I:37, I:25-I:35, II:2-II:17, II:9-II:23, II:16-II:37, II:25-II:35; linker I:38-II:38 via X1) [AgRP 7C Dimer]	–	–	–	–	–	–	–	–	–	–	–	–	~4 fold	–	–	IC50 ([1]; 5 nM Alexa488-labeled AgRP 7C as competitor): 3.2 ± 0.6 nM
2.5F Dimer2: EETI 2.5F, AO in place of Lys15, conjugated though the 68.5 Angstrom linker shown in FIG. 9 (GCPRPRGDNPPLTC[AO″]QDSDCLAGCVCGPNGFCG; ends and bridges not checked; also: dimer (Dimer2) conjugated through 68.5 Angstrom linker via AO15)	–	Strong inhibition	–	–	–	–	–	–	–	–	–	–	–	Strong inhibition	more strongly inhibited tumor cell proliferation compared to Dimers 3 and 4	–
